Laboratory results: ChEMBL document CHEMBL6109102, “Conjugation with the XJB peptide enhanced neuroprotective effect of honokiol via SIRT3 modulation” (Eur J Med Chem, 2025)
Active and inactive are the calls of the source. The rule behind the calls is not given here.

What was measured:
PC-12 [1] = assay: Inhibition of apoptosis in H2O2-induced rat PC12 cells assessed as late apoptotic cells at 2.5 uM incubated with compound for 24 hrs followed by H2O2 addition and measured after 24 hrs by Annexin V-FITC/PI staining based flow cytometry analysis (reference value: 2.64%); assay type: functional; design: scale not given: the % may be the effect or the level left
PC-12 [2] = assay: (§1) Neuroprotective activity in H2O2-induced rat PC12 cells assessed as reversal of mitochondrial membrane potential reduction by measuring red fluorescence fold change at 1.5 uM incubated with compound for 24 hrs followed by H2O2 addition and measured after 24 hrs by JC-1 based fluorescence microscopic analysis (reference value: 1.00); assay type: functional
PC-12 [3] = assay: as §1, with “measuring green” for “measuring red”, “fluorescence” for “fluorescence fold change”, “at 5” for “at 1.5”, “value: 4.90 a.u.)” for “value: 1.00)”; assay type: functional
PC-12 [4] = assay: Cytoprotective activity against H2O2-induced cell injury in rat PC12 cells assessed as cell viability at 10 uM incubated for 24 hrs by MTT assay; assay type: functional, cell-based
PC-12 [5] = assay: Induction of autophagy in H2O2-induced rat PC12 cells assessed as upregulation of LC3-II/I ratio by Western blot analysis; assay type: functional, cell-based; details: dose 1.25-5 µM
Danio rerio = assay: Anti-alzheimer activity in scopolamine induced zebrafish alzheimer disease model assessed as increase in total swimming distance at 1.25 to 5 uM administered for 6 days post fertilization; assay type: functional, organism-based; details: dose 1.25-5 µM, time 6.0 day
SH-SY5Y = assay: Cytotoxicity against human SH-SY5Y cells assessed as inhibition of cell viability at 100 uM incubated for 24 hrs by MTT assay; assay type: functional, cell-based
PC-12 [6] = assay: Inhibition of apoptosis in H2O2-induced rat PC12 cells assessed as early apoptotic cells at 2.5 uM incubated with compound for 24 hrs followed by H2O2 addition and measured after 24 hrs by Annexin V-FITC/PI staining based flow cytometry analysis (reference value: 1.09%); assay type: functional; design: scale not given: the % may be the effect or the level left
PC-12 [7] = assay: Inhibition of apoptosis in H2O2-induced rat PC12 cells assessed as viable cells at 1.25 uM incubated with compound for 24 hrs followed by H2O2 addition and measured after 24 hrs by Annexin V-FITC/PI staining based flow cytometry analysis (reference value: 91.4%); assay type: functional; details: read-out: Activity
PC-12 [8] = assay: Inhibition of apoptosis in H2O2-induced rat PC12 cells assessed as early apoptotic cells at 5 uM incubated with compound for 24 hrs followed by H2O2 addition and measured after 24 hrs by Annexin V-FITC/PI staining based flow cytometry analysis (reference value: 1.09%); assay type: functional; design: scale not given: the % may be the effect or the level left
PC-12 [9] = assay: as §1, with “fluorescence” for “fluorescence fold change”, “5” for “1.5”, “21.62 a.u.)” for “1.00)”; assay type: functional
[10] = Drug uptake in cytoplasm of rat PC12 cells at 8 uM incubated for 8.5 hrs by HPLC analysis; assay type: ADME, subcellular; details: pc12, 8.5 h
PC-12 [11] = assay: Anti-apoptotic activity in H2O2-induced rat PC12 cells assessed as increase in PARP protein expression at 1.25 to 5 uM by Western blot analysis; assay type: functional, cell-based; details: dose 1.25-5 µM
PC-12 [12] = assay: Cytoprotective activity against H2O2-induced cell injury in rat PC12 cells assessed as cell viability at 20 uM incubated for 24 hrs by MTT assay; assay type: functional, cell-based
PC-12 [13] = assay: Induction of autophagy in H2O2-induced rat PC12 cells assessed as downregulation of P62 expression by Western blot analysis; assay type: functional, cell-based; details: dose 1.25-5 µM
PC-12 [14] = assay: Inhibition of apoptosis in H2O2-induced rat PC12 cells assessed as necrotic cells at 1.25 uM incubated with compound for 24 hrs followed by H2O2 addition and measured after 24 hrs by Annexin V-FITC/PI staining based flow cytometry analysis (reference value: 4.05%); assay type: functional; design: scale not given: the % may be the effect or the level left
PC-12 [15] = assay: Inhibition of apoptosis in H2O2-induced rat PC12 cells assessed as necrotic cells at 5 uM incubated with compound for 24 hrs followed by H2O2 addition and measured after 24 hrs by Annexin V-FITC/PI staining based flow cytometry analysis (reference value: 4.05%); assay type: functional; design: scale not given: the % may be the effect or the level left
PC-12 [16] = assay: as §1, with “5” for “1.5”; assay type: functional
PC-12 [17] = assay: as §1, with “measuring green” for “measuring red”, “fluorescence” for “fluorescence fold change”, “at 2.5” for “at 1.5”, “value: 4.90 a.u.)” for “value: 1.00)”; assay type: functional
PC-12 [18] = assay: Inhibition of apoptosis in H2O2-induced rat PC12 cells assessed as late apoptotic cells at 1.25 uM incubated with compound for 24 hrs followed by H2O2 addition and measured after 24 hrs by Annexin V-FITC/PI staining based flow cytometry analysis (reference value: 2.64%); assay type: functional; design: scale not given: the % may be the effect or the level left
PC-12 [19] = assay: as §1, with “measuring green” for “measuring red”; assay type: functional
[20] = Drug uptake in mitochondria of rat PC12 cells at 8 uM incubated for 8.5 hrs by HPLC analysis; assay type: ADME; details: pc12, 8.5 h
PC-12 [21] = assay: as §1, with “measuring green” for “measuring red”, “at 2.5” for “at 1.5”; assay type: functional
PC-12 [22] = assay: as §1, with “2.5” for “1.5”; assay type: functional
PC-12 [23] = assay: Inhibition of apoptosis in H2O2-induced rat PC12 cells assessed as viable cells at 2.5 uM incubated with compound for 24 hrs followed by H2O2 addition and measured after 24 hrs by Annexin V-FITC/PI staining based flow cytometry analysis (reference value: 91.4%); assay type: functional; details: read-out: Activity
[24] = Drug uptake in rat PC12 cells at 8 uM incubated for 8.5 hrs by HPLC analysis; assay type: ADME, cell-based; details: pc-12, 8.5 h
PC-12 [25] = assay: as §1, with “measuring green” for “measuring red”, “fluorescence” for “fluorescence fold change”, “value: 4.90 a.u.)” for “value: 1.00)”; assay type: functional
PC-12 [26] = assay: Inhibition of apoptosis in H2O2-induced rat PC12 cells assessed as necrotic cells at 2.5 uM incubated with compound for 24 hrs followed by H2O2 addition and measured after 24 hrs by Annexin V-FITC/PI staining based flow cytometry analysis (reference value: 4.05%); assay type: functional; design: scale not given: the % may be the effect or the level left
PC-12 [27] = assay: as §1, with “fluorescence” for “fluorescence fold change”, “1.25” for “1.5”, “21.62 a.u.)” for “1.00)”; assay type: functional
PC-12 [28] = assay: as §1, with “fluorescence” for “fluorescence fold change”, “2.5” for “1.5”, “21.62 a.u.)” for “1.00)”; assay type: functional
PC-12 [29] = assay: Inhibition of apoptosis in H2O2-induced rat PC12 cells assessed as viable cells at 5 uM incubated with compound for 24 hrs followed by H2O2 addition and measured after 24 hrs by Annexin V-FITC/PI staining based flow cytometry analysis (reference value: 91.4%); assay type: functional; details: read-out: Activity
PC-12 [30] = assay: as §1, with “measuring green” for “measuring red”, “at 5” for “at 1.5”; assay type: functional
PC-12 [31] = assay: Inhibition of apoptosis in H2O2-induced rat PC12 cells assessed as late apoptotic cells at 5 uM incubated with compound for 24 hrs followed by H2O2 addition and measured after 24 hrs by Annexin V-FITC/PI staining based flow cytometry analysis (reference value: 2.64%); assay type: functional; design: scale not given: the % may be the effect or the level left
PC-12 [32] = assay: Inhibition of apoptosis in H2O2-induced rat PC12 cells assessed as early apoptotic cells at 1.25 uM incubated with compound for 24 hrs followed by H2O2 addition and measured after 24 hrs by Annexin V-FITC/PI staining based flow cytometry analysis (reference value: 1.09%); assay type: functional; design: scale not given: the % may be the effect or the level left
PC-12 [33] = assay: Cytotoxicity against rat PC12 cells assessed as inhibition of cell viability at 30 uM incubated for 24 hrs by MTT assay; assay type: functional, cell-based

C=CCc1ccc(O)c(-c2ccc(O)c(CC=C)c2)c1 [HONOKIOL]
Activity (PC-12 [1]): 3.27% | fold change (FC) (PC-12 [2]): 0.09 | Activity (PC-12 [3]): 3.97 a.u. | Activity (PC-12 [4]): Active | Activity (PC-12 [5]): inactive | Activity (Danio rerio): Active | Activity (SH-SY5Y): Active | Activity (PC-12 [6]): 15.6% | viability at 1.25 µM (PC-12 [7]): 76.9% | Activity (PC-12 [8]): 16.5% | Activity (PC-12 [9]): 13.31 a.u. | Drug uptake [10]: Active | Activity (PC-12 [11]): Active | Activity (PC-12 [12]): inactive | Activity (PC-12 [13]): inactive | Activity (PC-12 [14]): 1.57% | Activity (PC-12 [15]): 1.52% | fold change (FC) (PC-12 [16]): 0.63 | Activity (PC-12 [17]): 4.08 a.u. | Activity (PC-12 [18]): 4.95% | fold change (FC) (PC-12 [19]): 2.55 | Drug uptake [20]: Active | fold change (FC) (PC-12 [21]): 1.02 | fold change (FC) (PC-12 [22]): 0.32 | viability at 2.5 µM (PC-12 [23]): 79.6% | Drug uptake [24]: Active | Activity (PC-12 [25]): 6.32 a.u. | Activity (PC-12 [26]): 1.43% | Activity (PC-12 [27]): 2.16 a.u. | Activity (PC-12 [28]): 6.59 a.u. | viability at 5 µM (PC-12 [29]): 77.1% | fold change (FC) (PC-12 [30]): 1.26 | Activity (PC-12 [31]): 4.84% | Activity (PC-12 [32]): 16.6%

C=CCc1ccc(OC)c(-c2ccc(OCCCNC(=O)[C@H](CCCNC(=O)OCc3ccccc3)NC(=O)[C@@H](NC(=O)[C@@H]3CCCN3C(=O)[C@@H](Cc3ccccc3)NC(=O)[C@H](CC(C)C)NC(=O)OC(C)(C)C)C(C)C)c(CC=C)c2)c1
Activity (PC-12 [33]): inactive

C=CCc1ccc(OCCCNC(=O)[C@H](CCCNC(=O)OCc2ccccc2)NC(=O)[C@@H](NC(=O)[C@@H]2CCCN2C(=O)[C@@H](Cc2ccccc2)NC(=O)[C@H](CC(C)C)NC(=O)OC(C)(C)C)C(C)C)c(-c2ccc(OC)c(CC=C)c2)c1
Activity (PC-12 [33]): inactive
